Laboratory results from the supplement of paper PMC10307832.

Legend:
Assay in all cases: relative viability (nuclei count vs DMSO), 5 days (fraction); higher = more cells survive
[1] = compound: O[C@@H](COc1cccc2ncccc12)CN1CCN([C@@H]2c3ccccc3[C@@H]3[C@H](c4ccccc42)C3(F)F)CC1 [Zosuquidar] + C[C@]1(O)C[C@@H](c2nc(-c3ccc4ccc(-c5ccccc5)nc4c3)c3c(N)nccn32)C1 [Linsitinib] (partner 1 µM)
Method in brief: (§1)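 Each reported value is a median over duplicate plates. It expresses relative viability: treated-well nuclei count divided by vehicle-well nuclei count. Lung cancer cell lines in 1536-well plates were dosed by pin tool a day after seeding, alone with one drug or with a fixed anchor-drug dose plus five library-drug doses (not always all listed) in √10 steps, and nuclei were counted after 5 days.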

[2] = compound: O[C@@H](COc1cccc2ncccc12)CN1CCN([C@@H]2c3ccccc3[C@@H]3[C@H](c4ccccc42)C3(F)F)CC1 [Zosuquidar] + CC1(C)CCC(c2ccc(Cl)cc2)=C(CN2CCN(c3ccc(C(=O)NS(=O)(=O)c4ccc(N[C@H](CCN5CCOCC5)CSc5ccccc5)c(S(=O)(=O)C(F)(F)F)c4)cc3)CC2)C1 [Navitoclax] (partner 0.5 µM)
Method in brief: as §1

[3] = compound: C1=CC(=CC=C1NC(=S)NNC2=C(C=C(C=C2[N+](=O)[O-])C(F)(F)F)[N+](=O)[O-])F [Kobe2602] + CS(=O)(=O)N1CCN(Cc2cc3nc(-c4cccc5[nH]ncc45)nc(N4CCOCC4)c3s2)CC1 [Pictilisib] (partner 1 µM)
Method in brief: as §1

[4] = compound: C1=CC(=CC=C1NC(=S)NNC2=C(C=C(C=C2[N+](=O)[O-])C(F)(F)F)[N+](=O)[O-])F [Kobe2602] + CC(=O)c1c(C)c2cnc(Nc3ccc(N4CCNCC4)cn3)nc2n(C2CCCC2)c1=O [Palbociclib] (partner 0.5 µM)
Method in brief: as §1

Cell Line | relative viability ([1]; first compound 0.01 µM) | relative viability ([1]; first compound 0.03162 µM) | relative viability ([1]; first compound 0.1 µM) | relative viability ([1]; first compound 0.3162 µM) | relative viability ([1]; first compound 1 µM) | relative viability ([2]; first compound 0.01 µM) | relative viability ([2]; first compound 0.03162 µM) | relative viability ([2]; first compound 0.1 µM) | relative viability ([2]; first compound 0.3162 µM) | relative viability ([2]; first compound 1 µM) | relative viability ([3]; first compound 0.2 µM) | relative viability ([3]; first compound 0.6325 µM) | relative viability ([3]; first compound 2 µM) | relative viability ([3]; first compound 6.325 µM) | relative viability ([3]; first compound 20 µM) | relative viability ([4]; first compound 0.2 µM) | relative viability ([4]; first compound 0.6325 µM) | relative viability ([4]; first compound 2 µM) | relative viability ([4]; first compound 6.325 µM) | relative viability ([4]; first compound 20 µM)
NCI-H1703 | 1.13 | 0.979 | 0.543 | 1.57 | 0.74 | 1.39 | 1.36 | 1.44 | 1.33 | 1.05 | 0.26 | 0.245 | 0.225 | 0.263 | 0.229 | – | – | – | – | –
SK-MES-1 | 1.01 | 1.08 | 0.991 | 0.979 | 1.1 | 1.19 | 1.18 | 1.09 | 1.25 | 1.25 | 0.348 | 0.362 | 0.346 | 0.345 | 0.362 | 0.323 | 0.338 | 0.335 | 0.28 | 0.201
NCI-H522 | – | – | – | – | – | – | – | – | – | – | – | – | – | – | – | 1.13 | 1.1 | 0.915 | 1.11 | 0.993
LOU-NH91 | 0.937 | 0.927 | 0.736 | 1.03 | 0.913 | 0.624 | 0.695 | 0.571 | 0.739 | 0.68 | 0.553 | 0.49 | 0.468 | 0.528 | 0.566 | 0.475 | 0.5 | 0.537 | 0.526 | 0.529
NCI-H1355 | 0.864 | 0.798 | 0.641 | 0.87 | 0.887 | 1.06 | 0.951 | 0.797 | 0.954 | 1 | 0.358 | 0.526 | 0.451 | 0.429 | 0.42 | 0.341 | 0.367 | 0.385 | 0.398 | 0.406
NCI-H460 | 0.764 | 0.802 | 0.711 | 0.759 | 0.768 | 1.07 | 1.3 | 1.24 | 1.14 | 1.23 | 0.392 | 0.373 | 0.463 | 0.365 | 0.403 | – | 0.22 | 0.184 | 0.145 | 0.176
NCI-H1793 | 0.748 | 0.934 | – | 0.797 | 0.73 | 0.407 | 0.444 | – | 0.499 | 0.396 | 0.387 | 0.381 | 0.32 | 0.346 | 0.339 | 0.326 | 0.318 | 0.304 | 0.31 | 0.293
NCI-H2023 | 0.656 | 0.815 | 0.605 | 0.631 | 0.776 | 0.958 | 1 | 0.916 | 1.05 | 0.92 | 0.259 | 0.269 | 0.223 | 0.215 | 0.228 | 0.33 | 0.41 | 0.405 | 0.32 | 0.255
NCI-H358 | 0.768 | 0.726 | 0.715 | 0.735 | 0.75 | – | – | – | – | – | 0.301 | 0.324 | 0.332 | 0.39 | 0.318 | 0.14 | 0.128 | 0.142 | 0.144 | 0.138
Calu-6 | 0.905 | 0.906 | 0.901 | 1.12 | 0.948 | 0.88 | 0.81 | 0.895 | 0.86 | 0.813 | 0.935 | 0.931 | 0.856 | 0.885 | 0.882 | – | – | – | – | –
NCI-H2342 | – | – | – | – | – | – | – | – | – | – | – | – | – | – | – | 0.537 | 0.563 | 0.467 | 0.532 | 0.535
ChaGo-K-1 | – | – | – | – | – | 1.14 | 0.971 | 1.28 | 1.09 | 0.964 | 0.761 | 1.05 | 0.625 | 0.725 | 0.732 | 0.977 | 0.926 | 0.83 | 0.894 | 0.83
NCI-H1563 | 1.22 | 1.29 | 1.13 | 1.2 | 1.26 | – | – | – | – | – | 0.648 | 0.697 | 0.616 | 0.684 | 0.653 | – | – | – | – | –
NCI-H1299 | 1.03 | 0.955 | 0.967 | 0.992 | 0.959 | 1.06 | 1.02 | 1.03 | 1.01 | 1.04 | 0.862 | 0.957 | 0.706 | 0.71 | 0.916 | – | – | – | – | –
SW 900 | – | – | – | – | – | – | – | – | – | – | – | – | – | – | – | 0.621 | 0.53 | 0.559 | 0.567 | 0.551
ABC-1 | 0.877 | 0.794 | 0.836 | 0.871 | 0.924 | – | – | – | – | – | 0.821 | 1.03 | 0.768 | 0.923 | 0.868 | 0.579 | 0.762 | 0.559 | 0.853 | 0.739
NCI-H1648 | – | – | – | – | – | – | – | – | – | – | – | – | – | – | – | 0.237 | 0.275 | 0.248 | 0.228 | 0.283
NCI-H661 | 0.614 | 0.653 | 0.447 | 0.704 | 0.69 | – | – | – | – | – | 0.461 | 0.368 | 0.419 | 0.353 | 0.52 | 0.405 | 0.416 | 0.428 | 0.414 | 0.475
NCI-H2170 | – | – | – | – | – | 0.651 | 0.626 | 0.557 | 0.673 | 0.571 | 0.325 | 0.327 | 0.329 | 0.324 | 0.344 | 0.429 | 0.388 | 0.375 | 0.392 | 0.393
IA-LM | 0.671 | 0.766 | 0.334 | 0.654 | 0.624 | 0.803 | 0.83 | 1.02 | 0.848 | 0.753 | 0.369 | 0.306 | 0.338 | 0.318 | 0.317 | – | – | – | – | –
A549 | 0.766 | 0.571 | 0.416 | 0.53 | 0.564 | 1.16 | 0.892 | 1.16 | 1.23 | 1.24 | – | 0.476 | 0.487 | 0.524 | 0.514 | – | – | – | – | –
LCLC-103H | 1.13 | 1.17 | 1.05 | 0.912 | 1.03 | – | – | – | – | – | 0.596 | 0.696 | 0.62 | 0.618 | 0.638 | 0.504 | 0.518 | 0.537 | 0.539 | 0.491
